Assay results published in paper PMC6498537, “Biomimetic synthesis of the natural product salviadione and its hybrids: discovery of tissue-specific anti-inflammatory agents for acute lung injury” (Chemical Science, 2019).
pIC50: −log10 of the molar value. Read-outs that look alike come from different tables or passages of the source.

How the values were obtained:
[1] = Liver microsomal stability assay, human; format: in vitro ADME; details: for Clint in vitro / half-life at 0.1 μM: human liver microsomes; for half-life at 0.1 μM: pH 7.4
Protocol: (§1) Liver Microsomal Stability Assay. Microsomes in 0.1 M TRIS buffer pH 7.4 (final concentration 0.33 mg/mL), co-factor MgCl2 (final concentration 5 mM) and tested compound (final concentration 0.1 μM, co-solvent (0.01% DMSO) and 0.005% Bovin serum albumin) were incubated at 37°C for 10min. The reaction was started by the addition of NADPH (final concentration 1 mM). Aliquots were sampled at 0, 7, 17, 30 and 60 min, respectively, and methanol (cold in 4 °C) was added to terminate the […]
(§2) reaction. […]

[2] = Liver microsomal stability assay, rat; format: in vitro ADME; details: rat liver microsomes; for half-life at 0.1 μM: pH 7.4
Protocol: as §1, §2

[3] = set-up: method as in PMID 17504222; details: literature value for 2; ref 8a; cited from earlier work
[4] = test system: LPS-induced IL-6 release; experiment: LPS-induced IL-6 release in mouse primary peritoneal macrophages (ELISA); format: cell-based; details: Peritoneal macrophage, LPS (0.5 μg/mL) 24 h, 30 min pretreatment, read-out: IC50 against the release of IL-6
Protocol: (§3) Figure S3. Inhibitory activity of the benzo[def]carbazole-3,5-diones against LPS-induced TNF-α and IL-6 secretion in mouse peritoneal macrophages. Macrophages were plated at a density of 5 × 10^5/plate for overnight at 37 °C and in 5% CO2. Cells were pretreated with 5 or tanshinone analogues (10 μM) for 30 min, then treated with LPS (0.5 μg/mL) for 24 h. L6H21 (19) was used as a positive control. TNF-α and IL-6 levels in the culture medium were measured by ELISA and were normalized by the total protein level. The results were presented as the percent of LPS control. Each bar represents the mean ± SD of three independent experiments.
(§4) Statistical significance relative to the LPS group is indicated: ∗ , p < 0.05; ∗∗, p < 0.01.
(§5) (1 picture or pasted object on this page, not shown here)
(§6) Figure S5. […]
(§7) 30 min, then treated with LPS (0.5 μg/mL) for 24 h. IL-6 and TNF-α levels in the culture media were measured by ELISA and were normalized by the total protein. The results were expressed as the percent of LPS. […]
(§8) Determination of TNF-α and IL-6. The levels of TNF-α and IL-6 in medium, bronchoalveolar lavage fluid (BALF) and serum were determined with an ELISA kit (eBioScience, San Diego, CA) according to the manufacturer’s instructions. The total amount of the inflammatory factor in the medium was normalized to the total protein quantity of the viable cell pellets. […]

[5] = test system: LPS-induced TNF-α release; experiment: LPS-induced TNF-α release in mouse primary peritoneal macrophages (ELISA); format: cell-based; details: Peritoneal macrophage, LPS (0.5 μg/mL) 24 h, 30 min pretreatment, read-out: IC50 against the release of TNF-α
Protocol: as §3, §4, §5, §6, §7, §8

[6] = target: T1, hERG potassium ion channel (Homo sapiens, UniProt Q12809); experiment: hERG cardiotoxicity assay (manual patch clamp, HEK293); format: cell-based; details: whole-cell patch clamp, read-out: hERG inhibition IC50
T1 construct: expressed in transfected cells; host or cells: HEK293 (human embryonic kidney cells stably expressing hERG channels)
Protocol: hERG Cardiotoxicity Assay. The human embryonic kidney cells stably expressing hERG channels were used in the study.
vehicle control were delivered separately to the clamped cells by a 6-channel perfusion system. The hERG channel tail currents were recorded by clampex 10.3. The data were collected and analyzed by clampfit 10.3. The peak of the tail currents in the presence of positive control and test article were normalized with the currents recorded in the presence of corresponding vehicle control as 100 %, respectively. The IC50 value was calculated using GraphPad Prism 5.00.

[7] = Preliminary pharmacokinetic parameters (p.o. and i.v.); format: in vivo; details: for MRT inf: read-out: MRTINF_obs
Protocol: Table S4. Preliminary Pharmacokinetic Parameters for Compound 15a a-c
T1/2 Tma Cmax AUC CL_obs MRTINF_obs Vss_obs F […]
aValues are the average of three runs. Vehicle: DMSO, Tween 80, normal saline. CL, clearance; Vss, volume of distribution; T1/2, half-life; Cmax, maximum concentration; Tmax, time of maximum concentration; MRT, mean residence time; AUC, area under the plasma concentration time curve; F, oral bioavailability. bDose: p.o. at 3.0 mg/kg; cDose: i.v. at 1.0

[8] = Tissue distribution after single intravenous administration; format: in vivo, SD rats; details: iv 2 mg kg^–1, rat
Protocol: Tissue Distribution Assay. Compound 15a (2 mg/kg) dissolved in PEG300/EtOH/NaCl(40/10/50, v/v/v)to a concentration of 0.4 mg/mL, and was […]
given to SD rats (Male, 180–220 g, three groups with three rats in each group) by intravenous administration. Blood samples and the important tissues including heart, liver, lung, kidney, and brain were collected at 0.25, 2 and 12 h after administration (anticoagulant: EDTA-Na2). For plasma samples, 250 μL of solvent of methanol: acetonitrile (1:1, v/v) with internal standard was added to 50 μL of plasma and vortexed thoroughly. For tissue samples, three times the weight of volume of PBS were added, then homogenized. The homogenates were precipitated by five times of methanol: acetonitrile (1:1, v/v) with internal standard. They were centrifuged for 5 min, and then 20 μL of the supernatant was mixed with 20 μL of water for analysis. Samples were analyzed by AB6500 triple quadrupole mass spectrometer (AB Sciex, USA). The ACQUITY UPLC BEH C18 (1.7 μm, 2.0 mm × 50 mm, Waters, USA) was used for the analysis. Gradient elution was applied consisting of ultrapure water containing 0.1% formic acid and acetonitrile containing 0.1% formic acid. […]

[9] = test system: LPS-induced ALI in mice; experiment: LPS-induced acute lung injury (ALI) in mice; format: in vivo
Protocol: LPS-Induced Acute Lung Injury (ALI) in B6 Mice. Compound 15a was first
dissolved with macrogol 15 hydroxystearate (a nonionic solubilizer for injection from
BASF) with or without medium chain triglycerides (MCT, from BASF) in a water bath
at 37 °C. The concentration of compound was 2 mg/mL. The concentration of
solubilizer was 5−10%, and that for MCT was 0.5−2% in final solution. For the vehicle,
the mixture of solubilizer and MCT was prepared at 10% and 2%, respectively. Mice,
weighing 20−24 g, were randomized to the following three groups of seven animals
each: CON group, LPS group, 15a + LPS group. 15a + LPS group mice were pretreated
with compounds in a water solution (5 mg/kg) by i.v injection 15 min before 5 mg/kg
of LPS was administered by intratracheal instillation. The animals in CON group
received a similar volume of vehicle. After 6 hours, mice were euthanized to collect the
BALF, serum and lung tissue samples. […]
Determination Total Protein Concentration and Number of Neutrophils in BALF.
Bronchoalveolar lavage fluid (BALF) cells and supernatant were separated by
centrifugal separation at 4 °C and 3,000 rpm for 10 minutes. Total protein concentration
in supernatant of BALF was measured using a coomassie blue staining assay kit
according to the manufacturer's instructions. The cells of BALF were resuspended in
40 μL of physiological saline and used for neutrophil cell counts by Wright–Giemsa
Serum Analysis. Blood was collected from mice at sacrifice and was centrifuged at 4
°C and 12,000 rpm for 10 minutes. […]
Real-Time Quantitative PCR. Lung tissues were homogenized in TRIZOL kit
(Invitrogen, Carlsbad, CA) for extraction of RNA according to each manufacturer’s
protocol. Both reverse transcription and quantitative PCR were carried out using a two-
step M-MLV Platinum SYBR Green qPCR SuperMix-UDG kit (Invitrogen, Carlsbad,
CA). Eppendorf Mastercycler ep realplex detection system (Eppendorf, Hamburg,
Germany) was used for RT-qPCR analysis. The primers of genes including TNF-α,
IL-6, IL-1β, ICAM-1, and β-actin were synthesized by Invitrogen. The primer
sequences of mouse genes used are shown as follows:
TNF-α sense primer, 5′-[…]-3
TNF-α antisense primer, 5′-[…]-3′;
IL-6 sense primer, 5′-[…]-3′;
IL-6 antisense primer, 5′-[…]-3′;
IL-1β sense primer, 5′-[…]-3′;
IL-1β antisense primer, 5′-[…]-3′;
ICAM-1 sense primer, 5′-[…]-3′;
ICAM-1 antisense primer, 5′-[…]-3′;
β-actin sense primer, 5′-[…]-3′;
β-actin antisense primer, 5′-[…]-3′.
Statistical Analysis. The results are presented as the mean ±SD. The Student’s t test
was employed to analyze the differences between sets of data. Statistics were performed
using GraphPad Pro (GraphPad, San Diego, CA). P values less than 0.05 (p < 0.05)

[10] = pretreatment 5 mg kg^–1 i.v., LPS, 6 h

T1 sequence (Q12809 whole entry): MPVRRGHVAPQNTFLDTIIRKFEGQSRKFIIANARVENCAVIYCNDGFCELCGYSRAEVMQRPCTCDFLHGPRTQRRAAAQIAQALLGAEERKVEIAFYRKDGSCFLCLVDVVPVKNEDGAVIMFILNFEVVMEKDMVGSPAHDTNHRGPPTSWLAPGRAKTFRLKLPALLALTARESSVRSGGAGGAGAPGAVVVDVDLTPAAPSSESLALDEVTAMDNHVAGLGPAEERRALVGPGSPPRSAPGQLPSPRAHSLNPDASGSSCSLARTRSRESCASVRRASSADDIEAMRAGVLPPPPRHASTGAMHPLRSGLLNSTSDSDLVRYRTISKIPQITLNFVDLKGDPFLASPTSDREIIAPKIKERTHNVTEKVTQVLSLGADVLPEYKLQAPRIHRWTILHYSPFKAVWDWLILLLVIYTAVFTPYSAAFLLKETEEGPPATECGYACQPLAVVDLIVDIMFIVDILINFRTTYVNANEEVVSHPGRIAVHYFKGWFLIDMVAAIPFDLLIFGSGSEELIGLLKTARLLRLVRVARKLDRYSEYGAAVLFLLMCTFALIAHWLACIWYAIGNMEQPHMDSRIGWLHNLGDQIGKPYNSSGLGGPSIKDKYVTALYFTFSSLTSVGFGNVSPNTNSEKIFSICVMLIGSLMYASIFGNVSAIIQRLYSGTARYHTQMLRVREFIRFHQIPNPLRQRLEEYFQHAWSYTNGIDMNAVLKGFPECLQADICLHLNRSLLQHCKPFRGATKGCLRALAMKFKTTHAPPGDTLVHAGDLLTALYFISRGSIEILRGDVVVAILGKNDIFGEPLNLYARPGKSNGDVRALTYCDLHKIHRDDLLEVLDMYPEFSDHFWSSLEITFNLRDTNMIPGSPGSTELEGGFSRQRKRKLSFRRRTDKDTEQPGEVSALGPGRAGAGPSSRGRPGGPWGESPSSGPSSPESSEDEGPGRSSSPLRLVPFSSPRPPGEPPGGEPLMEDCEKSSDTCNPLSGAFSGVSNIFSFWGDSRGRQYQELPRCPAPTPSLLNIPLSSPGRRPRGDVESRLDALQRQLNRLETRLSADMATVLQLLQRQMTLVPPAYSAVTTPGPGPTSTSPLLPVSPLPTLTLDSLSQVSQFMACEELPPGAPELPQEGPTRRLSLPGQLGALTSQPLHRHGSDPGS

Which Clint in vitro [1] does the source give for `Cc1coc2c1C(=O)C(=O)c1c-2ccc2c1CCCC2(C)C` [Compound 2, tanshinone IIA, reference compound] here?
Its Clint in vitro is 277.17 mL min^–1 g^–1 protein.

And the half-life at 0.1 μM [1]?
The half-life at 0.1 μM was 7.58 min.

And the half-life at 0.1 μM [2]?
The half-life at 0.1 μM was 3.15 min.

And the Clint in vitro [2]?
Its Clint in vitro is 666.40 mL min^–1 g^–1 protein.

And the “F (oral bioavailability)” value [3]?
Its value is less than 3.5%.

What about the T1/2 [3] of the same compound?
The T1/2 was 20.4 min.

What does the source list for `Cc1coc2c1C(=O)c1c3c-2ccc2c3c(n1Cc1ccccc1)C(=O)CC2(C)C` [Compound 15a]?
pIC50 [4]: 5.79; pIC50 [5]: 5.20; pIC50 [6]: < 4.40; enhancement of metabolic stability compared to 2 ([1]; human and rat microsomes): 4- to 7 fold; Clint in vitro [1]: 61.62 mL min^–1 g^–1 protein; half-life at 0.1 μM [1]: 34.1 min; half-life at 0.1 μM [2]: 23.5 min; Clint in vitro [2]: 89.44 mL min^–1 g^–1 protein; Vss_obs ([7]; iv, 1.0 mg/kg): 5.98 L/kg; AUC ([7]; plasma, iv, 1.0 mg/kg): 485 ng·h/mL; half-life ([7]; plasma, iv, 1.0 mg/kg): 300 min; clearance ([7]; plasma, iv, 1.0 mg/kg, read-out: CL_obs): 34.9 mL/min/kg; MRT inf ([7]; plasma, iv, 1.0 mg/kg): 179 min; AUC ([7]; plasma, po, 3.0 mg/kg): 426 ng·h/mL; Cmax ([7]; plasma, po, 3.0 mg/kg): 81.2 ng/mL; MRT inf ([7]; plasma, po, 3.0 mg/kg): 320 min; F (oral bioavailability) ([7]; po 3.0 mg/kg vs iv 1.0 mg/kg): 30.2%; T1/2 ([7]; po, 3.0 mg/kg): 243 min; Tma ([7]; po, 3.0 mg/kg): 1.83 h; Concentration in brain ([8]; 0.25 h): 224 ng g^–1; Concentration in heart ([8]; 0.25 h): 992 ng g^–1; Concentration in heart plasma ([8]; 0.25 h): 144 ng mL^–1; Concentration in kidney ([8]; 0.25 h): 806 ng g^–1; Concentration in liver ([8]; 0.25 h): 2557 ng g^–1; Concentration in lung ([8]; 0.25 h): 3320 ng g^–1; Concentration in portal vein plasma ([8]; 0.25 h): 142 ng mL^–1; Concentration in brain ([8]; 2 h): 93.9 ng g^–1; Concentration in heart ([8]; 2 h): 223 ng g^–1; Concentration in heart plasma ([8]; 2 h): 31.2 ng mL^–1; Concentration in kidney ([8]; 2 h): 187 ng g^–1; Concentration in liver ([8]; 2 h): 518 ng g^–1; Concentration in lung ([8]; 2 h): 847 ng g^–1; Concentration in portal vein plasma ([8]; 2 h): 33.1 ng mL^–1; Concentration in brain ([8]; 12 h): 3.11 ng g^–1; Concentration in heart ([8]; 12 h): 19.8 ng g^–1; Concentration in heart plasma ([8]; 12 h): 1.90 ng mL^–1; Concentration in kidney ([8]; 12 h): 33.0 ng g^–1; Concentration in liver ([8]; 12 h): 57.3 ng g^–1; Concentration in lung ([8]; 12 h): 633 ng g^–1; Concentration in portal vein plasma ([8]; 12 h): 2.04 ng mL^–1; lung drug concentration relative to other tissues ([8]; 12 h): 11 to 300 times; mRNA expression of TNF-α, IL-6, IL-1β and ICAM-1 in lung tissue (RT-qPCR) ([9]; LPS-treated lung tissues, 5 mg/kg i.v.): markedly suppressed; lung wet/dry weight ratio (lung edema) ([9]; pretreatment 5 mg kg^–1 i.v., 15 min before LPS 5 mg/kg intratracheal, 6 h): effectively reduced; lung macrophage infiltration (CD68 immunostaining) ([9]; pretreatment 5 mg kg^–1 i.v., LPS): significantly attenuated; histopathological features of lung (H&E) [9, 10]: very little histopathological changes; level of IL-6 in BALF [9, 10]: distinctly suppressed; level of IL-6 in serum [9, 10]: no significant inhibition; level of TNF-α in BALF [9, 10]: distinctly suppressed; level of TNF-α in serum [9, 10]: no significant inhibition; number of neutrophils in BALF [9, 10]: significantly decreased; protein concentration in BALF [9, 10]: significantly inhibited
